Results: patent publication US8758816B2, “Compositions comprising azelastine and methods of use thereof” (priority 2004, dated 2014)
Counter-ions that a name gives are not always drawn.

System: patients with seasonal allergic rhinitis (SAR)
Test: MP 428 study: individual symptom severity scores (runny nose, itchy nose, sneezing, congestion; 0-3 scale)
Type: in vivo, human
Conditions: Intent-to-Treat Population
Method: A two-week, randomized, double-blind study, which evaluated the effects of the co-administration of ASTELIN® (azelastine hydrochloride (HCl)) and FLONASE® (fluticasone propionate) compared to either product alone in patients with seasonal allergic rhinitis (SAR) was conducted during the 2006 Texas mountain cedar season. After a 5-day placebo lead-in period, 151 patients with moderate-to-severe allergic rhinitis symptoms were randomized to either: (1) (49 total patients) ASTELIN® (azelastine hydrochloride (HCl)) plus placebo saline nasal spray 2 sprays per nostril, 15 minutes apart, twice daily (AM & PM); (2) (50 total patients) FLONASE® (fluticasone propionate) plus placebo saline nasal spray, 2 sprays per nostril, 15 minutes apart, once daily (AM) and two sessions of placebo saline nasal spray, 2 sprays per nostril, 15 minutes apart (PM); or (3) (52 total patients) the co-administration of ASTELIN® (azelastine hydrochloride (HCl)) 2 sprays per nostril plus FLONASE® (fluticasone propionate) 2 sprays per nostril (AM), 15 minutes apart, and ASTELIN® (azelastine hydrochloride (HCl)) 2 sprays per nostril plus placebo saline nasal spray, 15 minutes apart, (PM) for a 2-week double-blind treatment period.
The primary efficacy variable was the change from baseline in the Total Nasal Symptom Score (TNSS), which comprised sneezing, itchy nose, runny nose, and nasal congestion (individual symptoms scores were assigned a value between 0 and 3, where 0=no symptoms and 3=severe symptoms). This study was not statistically designed to assess the differences between ASTELIN® and FLONASE®.
The results of the clinical trial are summarized and presented in Appendix A hereinbelow and in FIGS. 1-6. […] FIGS. 2-5 show the mean improvement in severity score (0-3 scale) from baseline for the symptoms of runny nose, itchy nose, sneezing and congestion, respectively.

Structure (SMILES): CN1CCCC(n2nc(Cc3ccc(Cl)cc3)c3ccccc3c2=O)CC1 (racemic) [Azelastine, (±)-1-(2H)-phthalazinone, 4-[(4-chlorophenyl)methyl]-2-(hexahydro-1-methyl-1H-azepin-4-yl)-, mono-hydrochloride]
- Percent Change from Baseline in AM and PM Combined Nasal Symptom Score: Congestion, LS Mean (Day 12): −21.71%
- Percent Change from Baseline in AM and PM Combined Nasal Symptom Score: Congestion, Mean (Day 12): −22.63%
- Percent Change from Baseline in AM and PM Combined Nasal Symptom Score: Congestion, Median (Day 12): −16.67%
- Percent Change from Baseline in AM and PM Combined Nasal Symptom Score: Itchy Nose, LS Mean (Day 12): −29.11%
- Percent Change from Baseline in AM and PM Combined Nasal Symptom Score: Itchy Nose, Mean (Day 12): −28.74%
- Percent Change from Baseline in AM and PM Combined Nasal Symptom Score: Itchy Nose, Median (Day 12): −16.67%
- Percent Change from Baseline in AM and PM Combined Nasal Symptom Score: Runny Nose, LS Mean (Day 12): −22.75%
- Percent Change from Baseline in AM and PM Combined Nasal Symptom Score: Runny Nose, Mean (Day 12): −23.43%
- Percent Change from Baseline in AM and PM Combined Nasal Symptom Score: Runny Nose, Median (Day 12): −8.40%
- Percent Change from Baseline in AM and PM Combined Nasal Symptom Score: Sneezing, LS Mean (Day 12): −34.92%
- Percent Change from Baseline in AM and PM Combined Nasal Symptom Score: Sneezing, Mean (Day 12): −34.06%
- Percent Change from Baseline in AM and PM Combined Nasal Symptom Score: Sneezing, Median (Day 12): −33.33%
- Change from Baseline in AM and PM Combined Nasal Symptom Score: Congestion, LS Mean (Day 13): −1.25
- Change from Baseline in AM and PM Combined Nasal Symptom Score: Congestion, Mean (Day 13): −1.29
- Change from Baseline in AM and PM Combined Nasal Symptom Score: Congestion, Median (Day 13): −1.00
- Change from Baseline in AM and PM Combined Nasal Symptom Score: Itchy Nose, LS Mean (Day 13): −1.44
- Change from Baseline in AM and PM Combined Nasal Symptom Score: Itchy Nose, Mean (Day 13): −1.43
- Change from Baseline in AM and PM Combined Nasal Symptom Score: Itchy Nose, Median (Day 13): −1.15
- Change from Baseline in AM and PM Combined Nasal Symptom Score: Runny Nose, LS Mean (Day 13): −1.36
- Change from Baseline in AM and PM Combined Nasal Symptom Score: Runny Nose, Mean (Day 13): −1.38
- Change from Baseline in AM and PM Combined Nasal Symptom Score: Runny Nose, Median (Day 13): −1.07
- Change from Baseline in AM and PM Combined Nasal Symptom Score: Sneezing, LS Mean (Day 13): −1.60
- Change from Baseline in AM and PM Combined Nasal Symptom Score: Sneezing, Mean (Day 13): −1.60
- Change from Baseline in AM and PM Combined Nasal Symptom Score: Sneezing, Median (Day 13): −1.75
- Percent Change from Baseline in AM and PM Combined Nasal Symptom Score: Congestion, LS Mean (Day 13): −22.44%
- Percent Change from Baseline in AM and PM Combined Nasal Symptom Score: Congestion, Mean (Day 13): −23.01%
- Percent Change from Baseline in AM and PM Combined Nasal Symptom Score: Congestion, Median (Day 13): −18.64%
- Percent Change from Baseline in AM and PM Combined Nasal Symptom Score: Itchy Nose, LS Mean (Day 13): −32.25%
- Percent Change from Baseline in AM and PM Combined Nasal Symptom Score: Itchy Nose, Mean (Day 13): −31.63%
- Percent Change from Baseline in AM and PM Combined Nasal Symptom Score: Itchy Nose, Median (Day 13): −22.33%
- Percent Change from Baseline in AM and PM Combined Nasal Symptom Score: Runny Nose, LS Mean (Day 13): −27.36%
- Percent Change from Baseline in AM and PM Combined Nasal Symptom Score: Runny Nose, Mean (Day 13): −27.57%
- Percent Change from Baseline in AM and PM Combined Nasal Symptom Score: Runny Nose, Median (Day 13): −24.05%
- Percent Change from Baseline in AM and PM Combined Nasal Symptom Score: Sneezing, LS Mean (Day 13): −35.90%
- Percent Change from Baseline in AM and PM Combined Nasal Symptom Score: Sneezing, Mean (Day 13): −35.28%
- Percent Change from Baseline in AM and PM Combined Nasal Symptom Score: Sneezing, Median (Day 13): −30.43%
- Change from Baseline in AM and PM Combined Nasal Symptom Score: Congestion, LS Mean (Day 14): −1.33
- Change from Baseline in AM and PM Combined Nasal Symptom Score: Congestion, Mean (Day 14): −1.39
- Change from Baseline in AM and PM Combined Nasal Symptom Score: Congestion, Median (Day 14): −1.05
- Change from Baseline in AM and PM Combined Nasal Symptom Score: Itchy Nose, LS Mean (Day 14): −1.39
- Change from Baseline in AM and PM Combined Nasal Symptom Score: Itchy Nose, Mean (Day 14): −1.39
- Change from Baseline in AM and PM Combined Nasal Symptom Score: Itchy Nose, Median (Day 14): −1.15
- Change from Baseline in AM and PM Combined Nasal Symptom Score: Runny Nose, LS Mean (Day 14): −1.32
- Change from Baseline in AM and PM Combined Nasal Symptom Score: Runny Nose, Mean (Day 14): −1.34
- Change from Baseline in AM and PM Combined Nasal Symptom Score: Runny Nose, Median (Day 14): −1.43
- Change from Baseline in AM and PM Combined Nasal Symptom Score: Sneezing, LS Mean (Day 14): −1.51
- Change from Baseline in AM and PM Combined Nasal Symptom Score: Sneezing, Mean (Day 14): −1.50
- Change from Baseline in AM and PM Combined Nasal Symptom Score: Sneezing, Median (Day 14): −1.35
- Percent Change from Baseline in AM and PM Combined Nasal Symptom Score: Congestion, LS Mean (Day 14): −23.87%
- Percent Change from Baseline in AM and PM Combined Nasal Symptom Score: Congestion, Mean (Day 14): −24.78%
- Percent Change from Baseline in AM and PM Combined Nasal Symptom Score: Congestion, Median (Day 14): −20.79%
- Percent Change from Baseline in AM and PM Combined Nasal Symptom Score: Itchy Nose, LS Mean (Day 14): −31.60%
- Percent Change from Baseline in AM and PM Combined Nasal Symptom Score: Itchy Nose, Mean (Day 14): −31.14%
- Percent Change from Baseline in AM and PM Combined Nasal Symptom Score: Itchy Nose, Median (Day 14): −25.00%
- Percent Change from Baseline in AM and PM Combined Nasal Symptom Score: Runny Nose, LS Mean (Day 14): −25.17%
- Percent Change from Baseline in AM and PM Combined Nasal Symptom Score: Runny Nose, Mean (Day 14): −25.22%
- Percent Change from Baseline in AM and PM Combined Nasal Symptom Score: Runny Nose, Median (Day 14): −29.41%
- Percent Change from Baseline in AM and PM Combined Nasal Symptom Score: Sneezing, LS Mean (Day 14): −30.86%
- Percent Change from Baseline in AM and PM Combined Nasal Symptom Score: Sneezing, Mean (Day 14): −29.95%
- Percent Change from Baseline in AM and PM Combined Nasal Symptom Score: Sneezing, Median (Day 14): −27.93%
- Change from Baseline in AM and PM Combined Nasal Symptom Score: Congestion, LS Mean (Overall (Day 2 to Day 14)): −1.08
- Change from Baseline in AM and PM Combined Nasal Symptom Score: Congestion, Mean (Overall (Day 2 to Day 14)): −1.12
- Change from Baseline in AM and PM Combined Nasal Symptom Score: Congestion, Median (Overall (Day 2 to Day 14)): −0.77
- Change from Baseline in AM and PM Combined Nasal Symptom Score: Itchy Nose, LS Mean (Overall (Day 2 to Day 14)): −1.14
- Change from Baseline in AM and PM Combined Nasal Symptom Score: Itchy Nose, Mean (Overall (Day 2 to Day 14)): −1.16
- Change from Baseline in AM and PM Combined Nasal Symptom Score: Itchy Nose, Median (Overall (Day 2 to Day 14)): −0.98
- Change from Baseline in AM and PM Combined Nasal Symptom Score: Runny Nose, LS Mean (Overall (Day 2 to Day 14)): −1.06
- Change from Baseline in AM and PM Combined Nasal Symptom Score: Runny Nose, Mean (Overall (Day 2 to Day 14)): −1.08
- Change from Baseline in AM and PM Combined Nasal Symptom Score: Runny Nose, Median (Overall (Day 2 to Day 14)): −0.67
- Change from Baseline in AM and PM Combined Nasal Symptom Score: Sneezing, LS Mean (Overall (Day 2 to Day 14)): −1.48
- Change from Baseline in AM and PM Combined Nasal Symptom Score: Sneezing, Mean (Overall (Day 2 to Day 14)): −1.49
- Change from Baseline in AM and PM Combined Nasal Symptom Score: Sneezing, Median (Overall (Day 2 to Day 14)): −1.31
- Percent Change from Baseline in AM and PM Combined Nasal Symptom Score: Congestion, LS Mean (Overall (Day 2 to Day 14)): −19.23%
- Percent Change from Baseline in AM and PM Combined Nasal Symptom Score: Congestion, Mean (Overall (Day 2 to Day 14)): −19.82%
- Percent Change from Baseline in AM and PM Combined Nasal Symptom Score: Congestion, Median (Overall (Day 2 to Day 14)): −12.82%
- Percent Change from Baseline in AM and PM Combined Nasal Symptom Score: Itchy Nose, LS Mean (Overall (Day 2 to Day 14)): −25.36%
- Percent Change from Baseline in AM and PM Combined Nasal Symptom Score: Itchy Nose, Mean (Overall (Day 2 to Day 14)): −25.53%
- Percent Change from Baseline in AM and PM Combined Nasal Symptom Score: Itchy Nose, Median (Overall (Day 2 to Day 14)): −19.66%
- Percent Change from Baseline in AM and PM Combined Nasal Symptom Score: Runny Nose, LS Mean (Overall (Day 2 to Day 14)): −20.47%
- Percent Change from Baseline in AM and PM Combined Nasal Symptom Score: Runny Nose, Mean (Overall (Day 2 to Day 14)): −21.06%
- Percent Change from Baseline in AM and PM Combined Nasal Symptom Score: Runny Nose, Median (Overall (Day 2 to Day 14)): −15.44%
- Percent Change from Baseline in AM and PM Combined Nasal Symptom Score: Sneezing, LS Mean (Overall (Day 2 to Day 14)): −34.20%
- Percent Change from Baseline in AM and PM Combined Nasal Symptom Score: Sneezing, Mean (Overall (Day 2 to Day 14)): −33.98%
- Percent Change from Baseline in AM and PM Combined Nasal Symptom Score: Sneezing, Median (Overall (Day 2 to Day 14)): −33.20%
